# Assay results from patent US6875764B1, “Urea and thiourea compounds useful for treatment of coccidiosis” (New Pharma Research Sweden AB, priority 1999, dated 2005).
# How the values were obtained:
# [1] = system: Eimeria spp. (E. acervulina, E. maxima, E. necatrix, E. tenella and E. brunetti); assay: Prophylactic anticoccidial evaluation in vivo in chickens of Habbared X breed, drug in feed; set-up: species or system chicken; details: for Average number of Eimeria spp. oocysts/g faeces, day after hatch 14: day 14 after hatch; for Average number of Eimeria spp. oocysts/g faeces, day after hatch 14 / Average number of Eimeria spp. oocysts/g faeces, day after hatch 15 / Average number of Eimeria spp. oocysts/g faeces, day after hatch 16 / Average number of Eimeria spp. oocysts/g faeces, day after hatch 17 / Average number of Eimeria spp. oocysts/g faeces, day after hatch 18 / Average number of Eimeria spp. oocysts/g faeces, day after hatch 19 / Average number of Eimeria spp. oocysts/g faeces, day after hatch 21: infected orally day 10; for Average number of Eimeria spp. oocysts/g faeces, day after hatch 14 / Average number of Eimeria spp. oocysts/g faeces, day after hatch 15 / Average number of Eimeria spp. oocysts/g faeces, day after hatch 16 / Average number of Eimeria spp. oocysts/g faeces, day after hatch 17 / Average number of Eimeria spp. oocysts/g faeces, day after hatch 18 / Average number of Eimeria spp. oocysts/g faeces, day after hatch 19 / Average number of Eimeria spp. oocysts/g faeces, day after hatch 21 / Mean body weight / Mean amount of feed consumed / Average number of Eimeria spp. oocysts/g faeces, Total: in feed B49 100 ppm, B42 150 ppm, B46 100 ppm, Coxistac 60 ppm; for Average number of Eimeria spp. oocysts/g faeces, day after hatch 15: day 15 after hatch; for Average number of Eimeria spp. oocysts/g faeces, day after hatch 16: day 16 after hatch; for Average number of Eimeria spp. oocysts/g faeces, day after hatch 17: day 17 after hatch; for Average number of Eimeria spp. oocysts/g faeces, day after hatch 18: day 18 after hatch; for Average number of Eimeria spp. oocysts/g faeces, day after hatch 19: day 19 after hatch; for Average number of Eimeria spp. oocysts/g faeces, day after hatch 21: day 21 after hatch; for Mean body weight: final weight; for Mean amount of feed consumed: mean total amount per bird; for Average number of Eimeria spp. oocysts/g faeces, Total: total of days 14 to 21 after hatch; for duration of the anticoccidial infection as compared to Coxistac: B49 100 ppm, B42 150 ppm vs Coxistac 60 ppm
# Experimental: (§1) The antiparasitic activity of the present compounds as prophylactic agents was evaluated in vivo on 100 one day old (1 day after hatch) chickens of Habbared X breed. The chickens were divided into five groups of 20 birds each, and each group was located in a separate pen (1 m×1 m). The chickens were then fed with unmedicated food up to day 7 after hatch. Fresh water was supplied ad libitum.
# (§2) On day 8 after hatch, the five groups were given feed containing the following compounds (1 ppm=1 mg drug/kg feed): • Group #1: B49 (100 ppm); • Group #2: B42 (150 ppm); • Group #3: B46 (100 ppm); • Group #4: Coxistac (60 ppm), a known anticoccidial agent (see U.S. Pat. No. 3,857,948); • Group #5: no drug content (control group).
# (§3) The chickens were fed as above on day 8 and 9 after hatch. On day 10 after hatch, each chicken was infected orally by 6 000-7 000 oocysts containing a mixture of 5 mature sporulated strains, namely E. acervulina, E. maxima, E. necatrix, E. tenella and E. brunetti. The groups #1-4 received drug as above from day 10 to 21 after hatch.
# (§4) From day 14 to 21 after hatch, fresh fecal droplets were collected and examined daily. The average number of oocysts/g faeces was then calculated in accordance with the co-called Mc-Master technique (Soulsby, 1984).
# [2] = system: mixture of 8 mature sporulated strains (E. mitis, E. hagani, E. praecox, E. acervulina, E. maxima, E. necatrix, E. tenella and E. brunetti); assay: Prophylactic anticoccidial evaluation in chickens of Arbor Aker breed; type: in vivo, chicken; details: 100 ppm in feed from day 3 after hatch, infected orally day 7
# Experimental: as §1, §2, §3, §4
# Moreover, the prophylactic anticoccidial effect of B42, B49 and B51 was also evaluated in chickens of Arbor Aker breed. These trials were conducted by using basically the same test protocol as that used for the chickens of Habbared X breed, albeit with the following modifications: • i) On day 3 after hatch, the tested groups of chickens receieved feed containing 100 ppm of B42, B49, B51 or Coxistac (60 ppm); • ii) On day 7 after hatch, the chickens were infected orally by oocysts containing a mixture of 8 mature sporulated strains, namely E. mitis, E. hagani, E. praecox, E. acervulina, E. maxima, E. necatrix, E. tenella and E. brunetti.
Molecule,"Average number of Eimeria spp. oocysts/g faeces, day after hatch 14 [1] [oocysts/g faeces]","Average number of Eimeria spp. oocysts/g faeces, day after hatch 15 [1] [oocysts/g faeces]","Average number of Eimeria spp. oocysts/g faeces, day after hatch 16 [1] [oocysts/g faeces]","Average number of Eimeria spp. oocysts/g faeces, day after hatch 17 [1] [oocysts/g faeces]","Average number of Eimeria spp. oocysts/g faeces, day after hatch 18 [1] [oocysts/g faeces]","Average number of Eimeria spp. oocysts/g faeces, day after hatch 19 [1] [oocysts/g faeces]","Average number of Eimeria spp. oocysts/g faeces, day after hatch 21 [1] [oocysts/g faeces]",Mean body weight [1] [g],Mean amount of feed consumed [1] [g],"Average number of Eimeria spp. oocysts/g faeces, Total [1] [oocysts/g faeces]","prophylactic anticoccidial effect, results in words [2]","feed consumption lower in comparison with the Coxistac treated group ([1]; Habbared X chickens, B46 100 ppm vs Coxistac 60 ppm) [%]","body weight gain ([1]; Habbared X chickens, feed containing B46 100 ppm)",duration of the anticoccidial infection as compared to Coxistac ([1]; Habbared X chickens)
"CC[C@@H](C(=O)[C@@H](C)[C@@H](O)[C@H](C)[C@@H]1O[C@@H]([C@@H](CC)C(=O)O)CC[C@@H]1C)[C@H]1O[C@]2(C=C[C@@H](O)[C@]3(CC[C@@](C)([C@H]4CC[C@](O)(CC)[C@H](C)O4)O3)O2)[C@H](C)C[C@@H]1C [Coxistac, reference compound]",0.0,3000,4000,7000,2000,2000,0.0,62.0,120,18000,,,,
"N#Cc1ccc(NC(=S)Nc2ccc([N+](=O)[O-])cc2)cc1 [Compound B51, N-(4-cyanophenyl)-N′-(4-nitrophenyl) thiourea]",,,,,,,,,,,comparable with those of B42,,,
4-nitro-N-{[4-({4-nitro[(4-nitrophenyl)sulfonyl]anilino}-carbothioyl)-1-piperazinyl]carbothioyl}-N-(4-nitrophenyl)benzenesulfonamide [Compound B46],0.0,3000,14000,99000,6000,0.0,0.0,54.5,39.3,122000,,~67,fair body weight gain,
"O=[N+]([O-])c1ccc(S(=O)(=O)N(C(=S)N(c2nc3ccc([N+](=O)[O-])cc3s2)S(=O)(=O)c2ccc([N+](=O)[O-])cc2)c2ccc(F)cc2)cc1 [Compound B42, N-(4-fluorophenyl)-4-nitro-N-({(6-nitro-1,3-benzothiazol-2-yl)[(4-nitrophenyl)sulfonyl]amino}carbothioyl)benzene-sulfonamide]",0.0,0.0,3000,7000,0.0,0.0,0.0,61.0,93,10000,essentially the same as those reported for the trials with the chickens of Habbared X breed,,,shorter
"O=C(O)c1cc(I)c(NC(=S)Nc2ccccc2)c(I)c1 [Compound B49, 4-[(anilinocarbothioyl)amino]-3,5-diiodobenzoic acid]",0.0,3000,10000,20000,0.0,0.0,0.0,66.0,95,33000,essentially the same as those reported for the trials with the chickens of Habbared X breed,,,shorter
